SMILES strings stand for the structures.

The assay concerns the target PARP-1 enzyme (Homo sapiens, UniProt P09874). Nature of the assay: In vitro scintillation proximity assay (SPA) for PARP-1 inhibitory activity. The assay is classed as biochemical. As to conditions: [3H]-NAD+, biotinylated histones, nicked DNA; read-out: in vitro SPA assay PARP-1 pIC50 (converted). As for the experimental part:
In Vitro Scintillation Proximity Assay (SPA) for PARP-1 Inhibitory Activity
Compounds of the present invention were tested in an in vitro assay based on SPA technology (proprietary to Amersham Pharmacia Biotech).
In principle, the assay relies upon the well established SPA technology for the detection of poly(ADP-ribosyl)ation of biotinylated target proteins, i.e histones. This ribosylation is induced using nicked DNA activated PARP-1 enzyme and [^3H]-nicotinamide adenine dinucleotide ([^3H]-NAD^+) as ADP-ribosyl donor.
As inducer of PARP-1 enzyme activity, nicked DNA was prepared. For this, 25 mg of DNA (supplier: Sigma) was dissolved in 25 ml DNAse buffer (10 mM Tris-HCl, pH 7.4; 0.5 mg/ml Bovine Serum Albumine (BSA); 5 mM MgCl2.6H2O and 1 mM KCl) to which 50 μl DNAse solution (1 mg/ml in 0.15M NaCl) was added. After an incubation of 90 min. at 37° C., the reaction was terminated by adding 1.45 g NaCl, followed by a further incubation at 58° C. for 15 min. The reaction mixture was cooled on ice and dialysed at 4° C. for respectively 1.5 and 2 hours against 1.5 l of 0.2M KCl, and twice against 1.5 l of 0.01M KCl for 1.5 and 2 h respectively. The mixture was aliquoted and stored at −20° C. Histones (1 mg/ml, type II-A, supplier: Sigma) were biotinylated using the biotinylation kit of Amersham and stored aliquoted at −20° C. A stock solution of 100 mg/ml SPA poly(vinyl toluene) (PVT) beads (supplier: Amersham) was made in PBS. A stock solution of [^3H]-NAD^+ was made by adding 120 μl of [^3H]-NAD^+ (0.1 mCi/ml, supplier: NEN) to 6 ml incubation buffer (50 mM Tris/HCl, pH 8; 0.2 mM DTT; 4 mM MgCl2). A solution of 4 mM NAD^+ (supplier: Roche) was made in incubation buffer (from a 100 mM stock solution in water stored at −20° C.). The PARP-1 enzyme was produced using art known techniques, i.e. cloning and expression of the protein starting from human liver cDNA. Information concerning the used protein sequence of the PARP-1 enzyme including literature references can be found in the Swiss-Prot database under primary accession number P09874. Biotinylated histones and PVT-SPA beads were mixed and pre-incubated for 30 min. at room temperature. PARP-1 enzyme (concentration was lot dependent) was mixed with the nicked DNA and the mixture was pre-incubated for 30 min. at 4° C. Equal parts of this histones/PVT-SPA beads solution and PARP-1 enzyme/DNA solution were mixed and 75 μl of this mixture together with 1 μl of compound in DMSO and 25 μl of [^3H]-NAD^+ was added per well into a 96-well microtiterplate. The final concentrations in the incubation mixture were 2 μg/ml for the biotinylated histones, 2 mg/ml for the PVT-SPA beads, 2 μg/ml for the nicked DNA and between 5-10 μg/ml for the PARP-1 enzyme. After incubation of the mixture for 15 min. at room temperature, the reaction was terminated by adding 100 μl of 4 mM NAD^+ in incubation buffer (final concentration 2 mM) and plates were mixed.
The beads were allowed to sediment for at least 15 min. and plates transferred to a TopCountNXT™ (Packard) for scintillation counting, values were expressed as counts per minute (cpm). For each experiment, controls (containing PARP-1 enzyme and DMSO without compound), a blank incubation (containing DMSO but no PARP-1 enzyme or compound) and samples (containing PARP-1 enzyme and compound dissolved in DMSO) were run in parallel. All compounds tested were dissolved and eventually further diluted in DMSO. In first instance, compounds were tested at a concentration of 10^−5M. […] In each test, the blank value was subtracted from both the control and the sample values. The control sample represented maximal PARP-1 enzyme activity. For each sample, the amount of cpm was expressed as a percentage of the mean cpm value of the controls. […] Herein the effects of test compounds are expressed as pIC50 (the negative log value of the IC50-value).
On the technique in general: In a scintillation proximity assay essentially only radioactivity close to the scintillant gives light.

Chain of PARP-1 enzyme (P09874 whole entry): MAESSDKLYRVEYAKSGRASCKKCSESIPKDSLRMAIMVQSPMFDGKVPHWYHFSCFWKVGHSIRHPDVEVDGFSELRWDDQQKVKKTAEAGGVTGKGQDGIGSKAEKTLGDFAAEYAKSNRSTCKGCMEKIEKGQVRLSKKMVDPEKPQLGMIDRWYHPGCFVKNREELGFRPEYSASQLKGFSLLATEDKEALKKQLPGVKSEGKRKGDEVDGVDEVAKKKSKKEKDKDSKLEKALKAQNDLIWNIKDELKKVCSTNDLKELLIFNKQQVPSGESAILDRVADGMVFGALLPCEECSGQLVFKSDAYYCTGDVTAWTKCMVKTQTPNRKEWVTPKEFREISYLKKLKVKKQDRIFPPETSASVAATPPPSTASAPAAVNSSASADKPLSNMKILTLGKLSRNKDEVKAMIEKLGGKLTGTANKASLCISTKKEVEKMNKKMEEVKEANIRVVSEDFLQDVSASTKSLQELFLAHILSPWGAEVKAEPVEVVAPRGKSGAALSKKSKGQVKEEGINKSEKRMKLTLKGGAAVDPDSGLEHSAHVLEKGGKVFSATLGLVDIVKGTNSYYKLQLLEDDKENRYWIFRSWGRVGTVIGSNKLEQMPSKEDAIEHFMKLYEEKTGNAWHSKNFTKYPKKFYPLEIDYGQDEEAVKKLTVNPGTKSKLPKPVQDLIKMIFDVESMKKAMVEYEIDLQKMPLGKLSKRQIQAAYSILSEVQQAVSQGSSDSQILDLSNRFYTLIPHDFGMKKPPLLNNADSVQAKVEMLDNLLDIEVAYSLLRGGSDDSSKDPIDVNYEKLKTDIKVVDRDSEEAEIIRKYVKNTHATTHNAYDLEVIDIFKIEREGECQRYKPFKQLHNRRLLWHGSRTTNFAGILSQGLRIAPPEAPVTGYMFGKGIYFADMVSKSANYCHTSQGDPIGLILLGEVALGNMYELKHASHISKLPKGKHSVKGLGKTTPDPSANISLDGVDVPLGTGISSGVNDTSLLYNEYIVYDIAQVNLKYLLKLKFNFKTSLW

Turning to `CCCCn1cc(C2CCN(CCCNc3nc4ccccc4c(=O)[nH]3)CC2)c2ccccc21` [Compound 28], the IC50 is 1490 nM. Next, `O=c1[nH]c(NCCCN2CCN(c3n[nH]c4ccccc34)CC2)nc2ccccc12` [Compound 22]: 46.3 nM; `O=c1[nH]c(NCCN2CCC(c3n[nH]c4cc(F)ccc34)CC2)nc2ccc(Cl)cc12` [Compound 36]: 10.8 nM; `CCc1cc2cc(CN3CCN(CCNc4nc5ccccc5c(=O)[nH]4)CC3)ccc2nc1OC` [Compound 3]: 535 nM. Next, `O=c1[nH]c(NCCN2CCC(Nc3n[nH]c(=O)c4ccccc34)CC2)nc2ccccc12` [Compound 33]: 34.8 nM; `O=c1[nH]c(NCCCN2CCN(c3n[nH]c4cc(F)ccc34)CC2)nc2ccccc12` [Compound 27]: 44.4 nM; `O=c1[nH]c(NCCN2CCN(c3nc4ccccc4c(=O)[nH]3)CC2)nc2ccccc12` [Compound 38]: 424 nM. Next, `Nc1c(Cl)cc(C(=O)NC2CCN(CCCNc3nc(O)c4ccccc4n3)CC2)c2c1CCO2` [Compound 45]: 225 nM; `CC1(C)Cc2c(N)c(Cl)cc(C(=O)NC3CCN(CCCNc4nc(O)c5ccccc5n4)CC3)c2O1` [Compound 4]: 718 nM; `O=c1nc(NCCCN2CCC(Nc3nccc4ccccc34)CC2)[nH]c2ccccc12` [Compound 40]: 322 nM. Consider `O=c1[nH]c(NCCCN2CCC(c3n[nH]c4cc(F)ccc34)CC2)nc2ccccc12` [Compound 25], for which the IC50 is 190 nM.

For the compound `O=c1[nH]c(NCCN2CCC(Nc3nc4ccccc4c(=O)[nH]3)CC2)nc2ccccc12` [Compound 30], the IC50 was 32.3 nM.

Consider `CC1(C)Cc2c(N)c(Cl)cc(C(=O)NC3CCN(CCCCNc4nc(O)c5ccccc5n4)CC3)c2O1` [Compound 5], for which the IC50 was 638 nM. Regarding `O=c1[nH]c(NCCN2CCN(c3n[nH]c4ccccc34)CC2)nc2ccc(Cl)cc12` [Compound 1], the IC50 is 7.76 nM. Next, `O=c1[nH]c(NCCCN2CCC(c3noc4cc(F)ccc34)CC2)nc2ccccc12` [Compound 26]: 425 nM; `O=c1[nH]c(NCCN2CCN(c3n[nH]c4ccccc34)CC2)nc2cc(Cl)ccc12` [Compound 44]: 29.3 nM; `Cc1ccc2nc(NCCN3CCN(c4n[nH]c5ccccc45)CC3)[nH]c(=O)c2c1` [Compound 43]: 12.4 nM.

For `Cc1ccc2nc(NCCN3CCC(c4n[nH]c5cc(F)ccc45)CC3)[nH]c(=O)c2c1` [Compound 37], the IC50 was 15.3 nM. Next, `O=c1[nH]c(NCCN2CCN(c3n[nH]c4cc(F)ccc34)CC2)nc2ccccc12` [Compound 41]: 44.5 nM; `Cc1cccc2nc(NCCN3CCN(c4n[nH]c5ccccc45)CC3)[nH]c(=O)c12` [Compound 39]: 9.93 nM; `O=c1[nH]c(NCCCN2CCC(c3c[nH]c4ccccc34)CC2)nc2ccccc12` [Compound 20]: 675 nM. Next, `O=c1[nH]c(NCCCN2CCN(c3nsc4ccccc34)CC2)nc2ccccc12` [Compound 24]: 785 nM; `O=c1[nH]c(NCCCN2CCC(n3c(=O)[nH]c4ccccc43)CC2)nc2ccccc12` [Compound 29]: 785 nM. Regarding `CO[C@@H]1CN(CCCNc2nc(O)c3ccccc3n2)CC[C@@H]1NC(=O)c1cc(Cl)c(N)c2c1OCCC2` [Compound 6], the IC50 is 387 nM. Next, `O=C(c1ccc(F)cc1)C1CCN(CCNc2nc3ccccc3c(=O)[nH]2)CC1` [Compound 46]: 231 nM; `O=c1[nH]c(NCCN2CCC(c3n[nH]c4cc(F)ccc34)CC2)nc2cc(Cl)ccc12` [Compound 31]: 39.4 nM; `O=c1[nH]c(NCCCN2CCC(Nc3cccc4ccccc34)CC2)nc2ccccc12` [Compound 42]: 841 nM. Next, `CO[C@H]1CN(CCCNc2nc3ccccc3c(=O)[nH]2)CC[C@H]1NC(=O)c1cc(Cl)cc2c1OC(C)(C)C2` [Compound 18]: 847 nM; `O=c1[nH]c(NCCCN2CCC(O)(c3ccc(Cl)cc3)CC2)nc2ccccc12` [Compound 2]: 133 nM; `O=c1[nH]c(NCCN2CCC(c3n[nH]c4cc(F)ccc34)CC2)nc2ccccc12` [Compound 21]: 25.5 nM. Consider `CO[C@@H]1CN(CCCNc2nc(O)c3ccccc3n2)CCN1NC(=O)c1cc(Cl)c(N)c2c1OC(C)(C)C2` [Compound 8], for which the IC50 was 535 nM. Next, `Nc1c(Cl)cc(C(=O)OCC2CCN(CCNc3nc4ccccc4c(=O)[nH]3)CC2)c2c1OCCO2` [Compound 7]: 592 nM; `O=C(NC1CCN(CCCNc2nc3ccccc3c(=O)[nH]2)CC1)c1ccccc1` [Compound 23]: 687 nM.

The values are drawn from patent US10150757B2, “Quinazolinone derivatives as PARP inhibitors” (Janssen Pharmaceutica NV, priority 2004, dated 2018).
